Experimental data from US6489098B1, “Means and methods for monitoring nucleoside reverse transcriptase inhibitor antiretroviral therapy and guiding therapeutic decisions in the treatment of HIV/AIDS” (ViroLogic, Inc., priority 1998, dated 2002).
“Also recorded” adds a separate entry of the source.

Tests used:
[1] = test system: HIV-1 RT mutant resistance test vector 41 + 210 + 215; assay: Phenotypic susceptibility assay, site directed RTV 41 + 210 + 215; assay type: cell-based; details: RTV with 41 + 210 + 215; 3 replicates
Method: (§1) Resistance tests were carried out with resistance test vectors using two host cell types. Resistance test vector viral particles were produced by a first host cell (the resistance test vector host cell) that was prepared by transfecting a packaging host cell with the resistance test vector and the packaging expression vector. The resistance test vector viral particles were then used to infect a second host cell (the target host cell) in which the expression of the indicator gene is measured.
(§2) The resistance test vectors containing a functional luciferase gene cassette were constructed and host cells were transfected with the resistance test vector DNA. The resistant test vectors contained patient-derived reverse transcriptase and protease sequences that were either susceptible or resistant to the antiretroviral agents, such as nucleoside reverse transcriptase inhibitors, non-nucleoside reverse transcriptase inhibitors and protease inhibitors. The resistance test vector viral particles produced by transfecting the resistance test vector DNA into host cells, either in the presence or absence of protease inhibitors, were used to infect target host cells grown either in the absence of NRTI or NNRTI or In the presence of increasing concentrations of the drug. The amount of luciferase activIty produced in infected target host cells in the presence of drug was compared to the amount of luciferase produced in infected target host cells in the absence of drug. Drug resistance was measured as the amount of drug required to inhibit by 50% the luciferase activity detected in the absence of drug (Inhibitory concentration 50%, IC50). The IC50 values were determined by plotting percent drug inhibition vs. log 10 drug concentration.
Host cells were seeded in 10-cm-diameter dishes and were transfected several days after plating with resistance test vector plasmid DNA and the envelope expression vector. Transfections were performed using a calcium-phosphate precipitation procedure. The cell culture media containing the DNA precipitate was replaced with fresh medium, from one to 24 hours, after transfection. Cell culture media containing resistance test vector viral particles was harvested one to four days after transfection and was passed through a […] filter before being stored at −80° C. HIV capsid protein (p24) levels in the harvested cell culture media were determined by an EIA method as described by the manufacturer (SIAC; Frederick, Md.). Before infection, target cells (293 and 293/T) were plated in cell culture media. Control infections were performed using cell culture media from mock transfections (no DNA) or transfections containing the resistance test vector plasmid DNA without the envelope expression plasmid. One to three or more days after infectIon the media was removed and cell lysis buffer (Promega) was added to each well. Cell lysates were assayed for luciferase activity (FIG. 3). The inhibitory effect of the drug was determined using the following equation:
% luciferase inhibition=1−(RLUluc[drug]÷RLUluc)×100
where RLUluc [drug] is the relative light unit of luciferase activity in infected cells in the presence of drug and RLUluc is the Relative Light Unit of luciferase activity in infected cells in the absence of drug. IC50 values were obtained from the sigmoidal curves that were generated from the data by plotting the percent inhibition of luciferase activity vs. the log 10 drug concentration. The drug inhibition curves are shown in (FIG. 3).
Genotypic changes that are observed to correlate with changes in phenotypic patterns of drug susceptibility are evaluated by construction of resistance test vectors containing the specific mutation on a defined, wild-type (drug susceptible) genetic background. Mutations may be incorporated alone and/or in combination with other known drug resistance mutations that are thought to modulate the susceptibility of HIV to a certain drug or class of drugs. […]

[2] = test system: HIV with multi-nucleoside resistance complex (A62V, V75I, F77L, Y116F and Q115M); details: cited from earlier work
[3] = test system: HIV-1 RT mutant resistance test vector V75V; assay: Phenotypic susceptibility assay, site directed RTV V75V; assay type: cell-based; details: for effect on susceptibility (words): RTV with V75V
Method: as §1
as §2, with “The amount of luciferase activIty produced in infected target host cells in the presence of drug was compared to the amount of luciferase produced in infected target host cells in the absence of drug. Drug resistance was measured as the amount of drug required to inhibit by 50% the luciferase activity detected in the absence of drug (Inhibitory concentration 50%, IC50).” left out
(§3) Host cells were seeded in 10-cm-diameter dishes and were transfected several days after plating with resistance test vector plasmid DNA and the envelope expression vector. […] HIV capsid protein (p24) levels in the harvested cell culture media were determined by an EIA method as described by the manufacturer (SIAC; Frederick, Md.). […] The inhibitory effect of the drug was determined using the following equation: […]
(§4) Genotypic changes that are observed to correlate with changes in phenotypic patterns of drug susceptibility are evaluated by construction of resistance test vectors containing the specific mutation on a defined, wild-type (drug susceptible) genetic background. […]

[4] = test system: resistance test vectors containing five (M41L, D67N, K70R, T215Y, K219Q) or six (M41L, D67N, K70R, L210W, T215Y, K219Q) AZT resistance associated mutations; assay: Phenotypic susceptibility assay, site directed RTVs with five or six AZT resistance associated mutations; assay type: cell-based, HIV-1
Method: as §1
(§5) The resistance test vectors containing a functional luciferase gene cassette were constructed and host cells were transfected with the resistance test vector DNA. […] The IC50 values were determined by plotting percent drug inhibition vs. log 10 drug concentration.
as §3

[5] = test system: HIV-1 RT mutant resistance test vector T69SSA and V75I; assay: Phenotypic susceptibility assay, site directed RTV T69SSA+V75I; assay type: cell-based; details: V75I added onto the T69SSA background
Method: as §1, §5, §3

[6] = test system: HIV-1 RT mutant resistance test vector A62V+V75I; assay: Phenotypic susceptibility assay, site directed RTV A62V+V75I; assay type: cell-based; details: RTV with A62V+V75I
Method: as §1, §5, §3

[7] = test system: HIV-1 RT mutant resistance test vector V75I; assay: Phenotypic susceptibility assay, site directed RTV V75I; assay type: cell-based; details: RTV with V75I vs wild type RTV
Method: as §1
as §2, with “The amount of luciferase activIty produced in infected target host cells in the presence of drug was compared to the amount of luciferase produced in infected target host cells in the absence of drug. Drug resistance was measured as the amount of drug required to inhibit by 50% the luciferase activity detected in the absence of drug (Inhibitory concentration 50%, IC50).” left out
as §3, §4

[8] = test system: HIV with RT mutation at codon 50; details: mutation at codon 50, in vitro; cited from earlier work
[9] = test system: HIV clinical isolates; details: cited from earlier work
[10] = test system: HIV with RT Lys65→Arg mutation; details: Lys65→Arg (K65R); cited from earlier work

Compound	Average fold reduction in susceptibility [1]	fold reduction in susceptibility ([2]; A62V, V75I, F77L, Y116F and Q115M)	effect on susceptibility (words) [3]	effect on susceptibility (words) [4]	effect on susceptibility (words) [5]	effect on susceptibility (words) [6]	effect on susceptibility (words) [7]	fold reduction in susceptibility ([3]; RTV with V75V vs control RTV)	fold reduction in sensitivity [8]	effect on susceptibility (words) ([7]; listed as d4t)	cross-resistance of isolates with substitutions at codons 62, 75, 77, 116 and 115 ([2]; patients on prolonged ZDV plus ddI or ddC)	fold reduction in susceptibility for each ten-fold decrease in ZDV sensitivity [9]	fold increase in IC50 / reduction in susceptibility [10]
Nc1nc(NC2CC2)c2ncn([C@H]3C=C[C@@H](CO)C3)c2n1 [ABC, abacavir]	2.25 fold	17 fold	–	–	–	–	–	–	–	–	–	–	–
Cc1cn([C@H]2C[C@H](N=[N+]=[N-])[C@@H](CO)O2)c(=O)[nH]c1=O [AZT, zidovudine]	56.14 fold	–	increased AZT susceptibility slightly	reduced susceptibility to d4T and AZT	increased susceptibility to AZT	slight increases in susceptibility to AZT; also recorded: did not alter the reduced level of AZT susceptibility caused by the V75I mutation	increase in the susceptibility to AZT; also recorded: increased AZT susceptibility; also recorded: increased AZT susceptibility slightly	–	–	–	–	–	–
Cc1cn([C@H]2C=C[C@@H](CO)O2)c(=O)[nH]c1=O [d4T, stavudine]	1.94 fold	–	did not reduce d4T susceptibility	reduced susceptibility to d4T and AZT	decreased susceptibility to d4T	no differences in their susceptibility to d4T; also recorded: had no effect on d4T; also recorded: had no affect on d4T susceptibility	did not alter d4T susceptibility; also recorded: did not reduce d4T susceptibility; also recorded: had no affect on d4T susceptibility	less than two-fold	30 fold	no effect on d4t-susceptibility	cross-resistance	–	–
Nc1ccn([C@H]2CC[C@@H](CO)O2)c(=O)n1 [ddC, zalcitabine]	1.36 fold	–	–	–	–	–	–	–	–	–	–	two-fold	five-fold to ten-fold
O=c1[nH]cnc2c1ncn2[C@H]1CC[C@@H](CO)O1 [ddI, didanosine]	1.08 fold	–	–	–	–	–	–	–	–	–	–	2.2 fold	three-fold to five-fold
